# Laboratory results: patent EP4032530B1, “PROLONGED-RELEASE FURAZIDIN COMPOSITION” (Adamed Pharma S.A., priority 2021, dated 2022)
# Assays:
# [1] = upon oral administration; cited from earlier work
# [2] = Phase I pivotal food effect pharmacokinetic study FUR-PK-03-19 (755/19); format: in vivo, human; settings: PK phase I studies
# Experimental: Study title: Randomized, open-label, three-period, cross-over, food effect pharmacokinetic study comparing bioavailability of furazidin, prolonged-release tablets, 200 mg having a composition of IR/1+MR/1 according to Example 1 in healthy subjects in different fed conditions.
# Aim of the study: The main study objective was to evaluate the pharmacokinetic properties and to compare the bioavailability of the Test product in healthy volunteers under different fed conditions.
# Study conduct: In this bioavailability study, the pharmacokinetic profile was tested for the Test formulation (prolonged-release bilayer tablet, IR/1+MR/1) having a strength of 200 mg furazidin. The bioavailability study was carried out under different fed conditions (after a high-protein meal or after a high-fat, high-calorie meal) and in fasting state in 30 healthy subjects. On the day of dosing, the subjects received randomly after an overnight fast a single dose of the modified-release formulation, administered on empty stomach (fasting conditions, Treatment A) or after a high-protein meal (Treatment B) or after a high-fat, high-calorie meal (Treatment C), each time with 240 mL of water. For each subject, there were 3 dosing periods, separated by a washout period of 7 days. […]
# The pharmacokinetic data for plasma and urine were statistically analysed in 29 subjects. […]
# Escherichia coli = settings: constant level, unchanged for several decades; cited from earlier work
smiles,measurement,setting,value
O=C1CN(/N=C/C=C/c2ccc([N+](=O)[O-])o2)C(=O)N1 [furazidin],half-life,[1],below 1 hour
same,site of absorption,[2],mainly absorbed in the upper part of the small intestine
same,susceptibility of Escherichia coli to furazidin,Escherichia coli,approx. 90%
